Source: ChEMBL document CHEMBL1127949, “GR159897 and related analogues as highly potent, orally active non-peptide neurokinin NK2 receptor antagonists” (Bioorg Med Chem Lett, 1994)

What was measured:
Substance-K receptor [1] = target: T1, Substance-K receptor (Rattus norvegicus, UniProt P16610); assay: Binding affinity by displacement of radiolabeled GR-100679 from Tachykinin receptor 2 from homogenized rat colon
T1 sequence (P16610 whole entry): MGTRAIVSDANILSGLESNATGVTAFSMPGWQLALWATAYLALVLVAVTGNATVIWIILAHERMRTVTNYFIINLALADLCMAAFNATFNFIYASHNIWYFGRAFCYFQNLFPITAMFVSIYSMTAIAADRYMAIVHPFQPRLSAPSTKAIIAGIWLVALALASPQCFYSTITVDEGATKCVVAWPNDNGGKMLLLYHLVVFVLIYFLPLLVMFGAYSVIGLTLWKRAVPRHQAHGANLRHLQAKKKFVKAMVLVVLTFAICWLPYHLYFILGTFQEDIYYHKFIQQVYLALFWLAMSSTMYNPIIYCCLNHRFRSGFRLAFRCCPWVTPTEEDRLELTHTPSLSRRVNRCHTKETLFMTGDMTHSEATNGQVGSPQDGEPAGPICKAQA

Neuromedin-K receptor = target: T2, Neuromedin-K receptor (Cavia porcellus, UniProt P30098); assay: Tested for inhibition of binding of [3H]senktide to Tachykinin receptor 3 in guinea pig cerebral cortex membranes; format: tissue-based, Membrane
T2 sequence (P30098 whole entry): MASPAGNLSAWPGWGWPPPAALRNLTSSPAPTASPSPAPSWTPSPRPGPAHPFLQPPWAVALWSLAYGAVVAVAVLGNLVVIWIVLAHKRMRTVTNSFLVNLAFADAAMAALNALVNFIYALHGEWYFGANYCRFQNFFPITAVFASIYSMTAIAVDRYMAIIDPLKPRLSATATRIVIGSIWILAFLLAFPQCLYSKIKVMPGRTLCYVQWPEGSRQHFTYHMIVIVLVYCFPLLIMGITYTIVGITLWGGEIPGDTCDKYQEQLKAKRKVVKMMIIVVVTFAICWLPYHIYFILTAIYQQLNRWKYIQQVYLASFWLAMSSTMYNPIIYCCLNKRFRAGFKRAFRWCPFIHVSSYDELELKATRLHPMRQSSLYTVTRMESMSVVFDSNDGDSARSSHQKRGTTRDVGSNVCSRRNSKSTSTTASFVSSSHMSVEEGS

Cavia porcellus = assay: In vivo ability to inhibit bronchoconstriction induced by GR-64349 (i.v.) in guinea pigs; format: functional
Substance-K receptor [2] = target: T3, Substance-K receptor (Homo sapiens, UniProt P21452); assay: Binding affinity against Tachykinin receptor 2 of human expressed in chinese hamster ovary cells; format: cell-based, CHO
T3 sequence (P21452 whole entry): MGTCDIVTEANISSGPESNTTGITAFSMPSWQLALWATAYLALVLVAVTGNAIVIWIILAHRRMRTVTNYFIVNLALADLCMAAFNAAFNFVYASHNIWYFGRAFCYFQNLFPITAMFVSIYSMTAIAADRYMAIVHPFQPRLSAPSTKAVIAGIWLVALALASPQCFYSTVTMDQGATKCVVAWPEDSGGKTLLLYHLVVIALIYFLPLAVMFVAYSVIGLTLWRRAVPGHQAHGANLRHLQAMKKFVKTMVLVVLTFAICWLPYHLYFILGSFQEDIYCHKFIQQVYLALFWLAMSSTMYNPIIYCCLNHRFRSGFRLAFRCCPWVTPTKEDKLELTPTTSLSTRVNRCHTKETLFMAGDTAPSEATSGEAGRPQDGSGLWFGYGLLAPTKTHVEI

[3] = target: T4, Substance-K receptor (Cavia porcellus) (UniProt Q64077); assay: Binding affinity against Tachykinin receptor 2 in guinea-pig trachea
T4 sequence (whole entry): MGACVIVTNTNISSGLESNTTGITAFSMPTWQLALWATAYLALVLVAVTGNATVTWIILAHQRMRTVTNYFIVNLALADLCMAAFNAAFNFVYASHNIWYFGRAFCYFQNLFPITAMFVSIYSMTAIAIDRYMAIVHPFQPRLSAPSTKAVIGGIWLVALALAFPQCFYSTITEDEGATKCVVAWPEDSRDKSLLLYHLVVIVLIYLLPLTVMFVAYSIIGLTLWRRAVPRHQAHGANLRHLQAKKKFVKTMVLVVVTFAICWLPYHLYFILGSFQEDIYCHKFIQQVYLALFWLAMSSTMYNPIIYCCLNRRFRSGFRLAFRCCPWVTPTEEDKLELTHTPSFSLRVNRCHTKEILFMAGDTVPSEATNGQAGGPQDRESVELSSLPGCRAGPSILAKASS

[4] = target: T4, Substance-K receptor (Cavia porcellus)
Description: Binding affinity against NK2 receptor in guinea-pig trachea

[O-][S@+](CC1(O)CCN(CCc2c[nH]c3ccc(F)cc23)CC1)c1ccccc1 (stereo in doubt; 8) [listing 1 of 2 here]
Ki (Substance-K receptor [1]): 0.316 nM
Ki (Neuromedin-K receptor): 39800 nM

N#Cc1ccc2[nH]cc(CCN3CCC(NC(=O)c4ccccc4)CC3)c2c1
Ki (Substance-K receptor [1]): 1580 nM

[O-][S+](CC1(O)CCN(CCc2c[nH]c3ccc(F)cc23)CC1)c1ccccc1 (stereo in doubt; 6) [4-BENZENESULFINYLMETHYL-1-[2-(5-FLUORO-1H-INDOL-3-YL)-ETHYL]-PIPERIDIN-4-OL (STRUCTURAL MIX)]
Ki (Substance-K receptor [1]): 0.501 nM

[O-][S@+](CC1(O)CCN(CCc2c[nH]c3ccc(F)cc23)CC1)c1ccccc1 (stereo in doubt; 5)
Ki (Substance-K receptor [1]): 3.98 nM
Dose (Cavia porcellus): 3 µM/kg

O=S(=O)(CC1(O)CCN(CCc2c[nH]c3ccc(F)cc23)CC1)c1ccccc1
Ki (Substance-K receptor [1]): 31.6 nM

Cc1ccccc1OCC1(O)CCN(CCc2c[nH]c3ccc(F)cc23)CC1
Ki (Substance-K receptor [1]): 31.6 nM

COC1(C[S@@+]([O-])c2ccccc2)CCN(CCc2c[nH]c3ccc(F)cc23)CC1
Ki (Substance-K receptor [1]): 0.1 nM
Ki (Substance-K receptor [2]): 0.316 nM
Dose (Cavia porcellus): 3 µM/kg
pKB [3]: 9.7
Ki (Neuromedin-K receptor): 20000 nM

[O-][S@+](CC1(O)CCN(CCc2c[nH]c3ccc(F)cc23)CC1)c1ccccc1 (stereo in doubt; 8) [listing 2 of 2 here]
pKB [4]: 8.7

[O-][S+](CC1(O)CCN(CCc2c[nH]c3ccc(F)cc23)CC1)c1ccccc1 (stereo in doubt; 9) [4-BENZENESULFINYLMETHYL-1-[2-(5-FLUORO-1H-INDOL-3-YL)-ETHYL]-PIPERIDIN-4-OL (STRUCTURAL MIX)]
Ki (Substance-K receptor [1]): 7.94 nM

Cc1ccccc1OCC(O)CNCCc1c[nH]c2ccc(F)cc12 (stereo unspecified)
Ki (Substance-K receptor [1]): 1000 nM
